This experiment in a line: HCV replicon assay (luciferase reporter, ET cell line). The format is cell-based. Particulars: Hepatitis C virus, HCV replicon luciferase activity in ET cells. Summed up:
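EC50 and, via WST-1 cytotoxicity, TC50 were fitted with a Hill-coefficient equation to % inhibition across 10 two-fold dilutions. Compounds at 0.1 nM-[…] with 0.5% DMSO were applied 24 h post-seeding to replicon-bearing ET cells (luc-ubi-neo/NS3-5B, adaptive mutations). Firefly luciferase signal was measured after 48-72 h.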
For orientation: In antiviral work, replicon cells carry a viral genome segment that copies itself.
One may read the inhibition as the relative decrease from the control value, in per cent. A lower inhibition goes with a response near the control. Take `O=C(NCc1cccs1)c1nc2c(C(F)(F)F)cc(-c3ccco3)cn2c1Cl` [Compound 152, 3-Chloro-6-furan-2-yl-8-trifluoromethyl-imidazo[1,2-a]pyridine-2-carboxylic acid (thiophen-2-ylmethyl)-amide]: the inhibition at 10 µM is 92.5%.
`O=C(c1nc2c(C(F)(F)F)cc(-c3ccoc3)cn2c1Cl)N1CC[C@@H](c2ccccc2)C1` [Compound 262, (3-Chloro-6-furan-3-yl-8-trifluoromethyl-imidazo[1,2-a]pyridin-2-yl)-(3-(S)-phenyl-pyrrolidin-1-yl)-methanone] yielded an inhibition at 10 µM of 97.3%.
On to `O=C(c1nc2c(C(F)(F)F)cc(-c3ccoc3)cn2c1Cl)N1C=C(c2cscn2)CCC1` [Compound 588, (3-Chloro-6-furan-3-yl-8-trifluoromethyl-imidazo[1,2-a]pyridin-2-yl)-(5-thiazol-4-yl-3,4-dihydro-2H-pyridin-1-yl)-methanone], for which at 10 µM the inhibition was 84.5%.
For `N#Cc1cc(-c2cn[nH]c2)cn2c(Cl)c(C(=O)NCc3cccs3)nc12` [Compound 379, 3-Chloro-8-cyano-6-(1H-pyrazol-4-yl)-imidazo[1,2-a]pyridine-2-carboxylic Acid (thiophen-2-ylmethyl)-amide] the value was 80.8%; for `O=C(c1nc2c(C(F)(F)F)cc(-c3ccoc3)cn2c1Cl)N1CCN(c2cccc(F)c2)CC1` [Compound 531, (3-Chloro-6-furan-3-yl-8-trifluoromethyl-imidazo[1,2-a]pyridine-2-yl)-[4-(3-fluoro-phenyl)-piperazin-1-yl]-methanone], 79.3%.
In the case of `O=C(NCc1ccc(-c2ccccn2)s1)c1nc2c(C(F)(F)F)cc(-c3ccco3)cn2c1Cl` [Compound 219, 3-Chloro-6-furan-2-yl-8-trifluoromethyl-imidazo[1,2-a]pyridine-2-carboxylic Acid (5-pyridin-2-yl-thiophen-2-ylmethyl)-amide] it was 25.4%.
For `Cn1cncc1CNC(=O)c1nc2c(C(F)(F)F)cc(-c3ccco3)cn2c1Cl` [Compound 327, 3-Chloro-6-furan-2-yl-8-trifluoromethyl-imidazo[1,2-a]pyridine-2-carboxylic Acid (3-methyl-3H-imidazol-4-ylmethyl)-amide] the value was 95.4%; for `O=C(NCc1cccs1)c1nn2c(C(F)(F)F)cc(-c3ccccc3)cc2c1Cl` [Compound 122, 3-Chloro-5-phenyl-7-trifluoromethyl-pyrazolo[1,5-a]pyridine-2-carboxylic Acid (thiophen-2-ylmethyl)-amide], 94.3%; for `O=C(c1nc2c(C(F)(F)F)cc(-c3ccccc3)cn2c1Cl)N1CCC(c2cccc(F)c2)C1` (stereo not drawn) [Compound 641, (3-Chloro-6-phenyl-8-trifluoromethyl-imidazo[1,2-a]pyridin-2-yl)-[3-(3-fluoro-phenyl)-pyrrolidin-1-yl]-methanone], 80.9%.
The compound `CS(=O)(=O)NC1CN(C(=O)c2nc3c(C(F)(F)F)cc(-c4ccoc4)cn3c2Cl)C1` [Compound 491, N-[1-(3-Chloro-6-furan-3-yl-8-trifluoromethyl-imidazo[1,2-a]pyridine-2-carbonyl)-azetidin-3-yl]-methanesulfonamide] came in with an inhibition at 10 µM of 92.4%.
In the case of `O=C(c1nc2c(C(F)(F)F)cc(-c3ccoc3)cn2c1Cl)N1CC=C(c2ccn[nH]2)CC1` [Compound 584, (3-Chloro-6-furan-3-yl-8-trifluoromethyl-imidazo[1,2-a]pyridin-2-yl)-[4-(2H-pyrazol-3-yl)-3,6-dihydro-2H-pyridin-1-yl]methanone] it was 72.5%; in that of `O=C(NCCc1ccccc1F)c1nc2c(C(F)(F)F)cc(-c3ccoc3)cn2c1Cl` [Compound 405, 3-Chloro-6-furan-3-yl-8-trifluoromethyl-imidazo[1,2-a]-pyridine-2-carboxylic acid [2-(2-fluoro-phenyl)-ethyl]-amide], 90%; in that of `O=C(c1nc2c(C(F)(F)F)cc(-c3ccoc3)cn2c1Cl)N1CC=C(c2ccccc2)CC1` [Compound 594, (3-Chloro-6-furan-3-yl-8-trifluoromethyl-imidazo[1,2-a]pyridin-2-yl)-(4-phenyl-3,6-dihydro-2H-pyridin-1-yl)-methanone], 88.5%.
In the case of `O=C(c1nc2c(C(F)(F)F)cc(-c3cn[nH]c3)cn2c1Br)N1CC=C(c2cccc(F)c2)C1` [Compound 437, [3-Bromo-6-(1H-pyrazol-4-yl)-8-trifluoromethyl-imidazo[1,2-a]pyridin-2-yl]-[3-(3-fluoro-phenyl)-2,5-dihydro-pyrrol-1-yl]-methanone] it was 96.9%; in that of `O=C(c1nc2c(C(F)(F)F)cc(-c3ccoc3)cn2c1Cl)N1CC=C(c2cccc(F)c2)C1` [Compound 426, (3-Chloro-6-furan-3-yl-8-trifluoromethyl-imidazo[1,2-a]pyridin-2-yl)-[3-(3-fluoro-phenyl)-2,5-dihydro-pyrrol-1-yl]-methanone], 98.2%.
As to `O=C(c1nc2c(C(F)(F)F)cc(-c3ccoc3)cn2c1Cl)N1CCC(c2ccccc2F)CC1` [Compound 275, (3-chloro-6-furan-3-yl-8-trifluoromethyl-imidazo[1,2-a]pyridine-2-yl)-[4-(2-fluoro-phenyl)-piperidin-1-yl]-methanone], the inhibition at 10 µM was determined as 97.8%.
In the case of `O=C(NCc1cccs1)c1nc2c(C(F)(F)F)cc(-c3ccc(Cl)s3)cn2c1Cl` [Compound 176, 3-Chloro-6-(5-chloro-thiophen-2-yl)-8-trifluoromethyl-imidazo[1,2-a]pyridine-2-carboxylic acid (thiophen-2-ylmethyl)-amide] it was 96.8%; in that of `CS(=O)(=O)N[C@@H]1CCN(C(=O)c2nc3c(C(F)(F)F)cc(-c4ccoc4)cn3c2Cl)C1` [Compound 480, N-[1-(3-Chloro-6-furan-3-yl-8-trifluoromethyl-imidazo[1,2-a]pyridine-2-carbonyl)-pyrrolidin-3-yl]-methanesulfonamide], 47.7%; in that of `O=C(c1nc2c(C(F)(F)F)cc(-c3cn[nH]c3)cn2c1Cl)N1CC[C@H](c2ccccc2)C1` [Compound 466, [3-Chloro-6-(1H-pyrazol-4-yl)-8-trifluoromethyl-imidazo[1,2-a]pyridin-2-yl]-(3-(R)-phenyl-pyrrolidin-1-yl)-methanone], 90.4%.
For `O=C(NCc1ccccn1)c1nc2c(C(F)(F)F)cc(-c3ccco3)cn2c1Cl` [Compound 163, 3-Chloro-6-furan-2-yl-8-trifluoromethyl-imidazo[1,2-a]pyridine-2-carboxylic acid (pyridin-2-ylmethyl)-amide] the value was 95.4%.
In the case of `O=C(c1cn2cc(-c3ccoc3)cc(C(F)(F)F)c2n1)N1CCC(c2ccc(F)cc2)C1` (stereo not drawn) [Compound 251, [3-(4-Fluoro-phenyl)-pyrrolidin-1-yl]-(6-furan-3-yl-8-trifluoromethyl-imidazo[1,2-a]pyridin-2-yl)-methanone] it was 93.4%; in that of `O=C(c1nc2c(C(F)(F)F)cc(-c3ccoc3)cn2c1Cl)N1CC=C(c2ccc(F)cc2)C1` [Compound 427, (3-Chloro-6-furan-3-yl-8-trifluoromethyl-imidazo[1,2-a]pyridin-2-yl)-[3-(4-fluoro-phenyl)-2,5-dihydro-pyrrol-1-yl]-methanone], 99.1%; in that of `O=C(c1nc2c(C(F)(F)F)cc(-c3cn[nH]c3)cn2c1Br)N1CC=C(c2cccs2)C1` [Compound 442, [3-Bromo-6-(1H-pyrazol-4-yl)-8-trifluoromethyl-imidazo[1,2-a]pyridine-2-yl]-(3-thiophen-2-yl-2.5-dihydro-pyrrol-1-yl)-methanone], 99.5%.
Turning to `O=C(c1nc2c(C(F)(F)F)cc(-c3ccoc3)cn2c1Cl)N1CCN(c2ccccn2)CC1` [Compound 532, (3-Chloro-6-furan-3-yl-8-trifluoromethyl-imidazo[1,2-a]pyridine-2-yl)-[4-pyridin-2-yl-piperazin-1-yl]-methanone], the inhibition at 10 µM worked out at 79.1%.
The compound `O=C(c1nc2c(C(F)(F)F)cc(-c3ccoc3)cn2c1Cl)N1CCN(c2ccccc2)CC1` [Compound 534, (3-Chloro-6-furan-3-yl-8-trifluoromethyl-imidazo[1,2-a]pyridine-2-yl)-(4-phenyl-piperazin-1-yl)-methanone] returned an inhibition at 10 µM of 77.6%.
For `Fc1cccc(C2CCN(Cc3cn4cc(-c5ccoc5)cc(C(F)(F)F)c4n3)C2)c1` (stereo not drawn) [Compound 474, 2-[3-(3-Fluoro-phenyl)-pyrroidin-1-ylmethyl]-6-furan-3-yl-8-trifluoromethyl-imidazo[1,2-a]pyridine] the value was 0.7%.
For `O=C(NCc1cccs1)c1cc2cc(-c3cn[nH]c3)cc(Cl)c2[nH]1` [Compound 347, 7-Chloro-5-(1H-pyrazol-4-yl)-1H-indole-2-carboxylic Acid (thiophen-2-ylmethyl)-amide] the value was 0.1%; for `O=C(Cc1cn2cc(-c3ccoc3)cc(C(F)(F)F)c2n1)N1CCC(c2cccc(F)c2)C1` (stereo not drawn) [Compound 652, 1-[3-(3-fluorophenyl)pyrrolidin-1-yl]-2-[6-(furan-3-yl)-8-(trifluoromethyl)imidazo[1,2-a]pyridin-2-yl]ethanone], 82.1%; for `O=C(c1nc2c(C(F)(F)F)cc(-c3cn[nH]c3)cn2c1-c1cn[nH]c1)N1CCC(c2cccc(F)c2)C1` (stereo not drawn) [Compound 486, [3,6-Bis-(1H-pyrazol-4-yl)-8-trifluoromethyl-imidazo[1,2-a]pyridin-2-yl]-[3-(3-fluoro-phenyl)-pyrrolidin-1-yl]-methanone], 65.8%.
Turning to `CC(C)(C)OC(=O)n1cccc1-c1cc(C(F)(F)F)c2nc(C(=O)NCc3cccs3)c(Cl)n2c1` [Compound 281, 2-{3-Chloro-2-[(thiophen-2-ylmethyl)-carbamoyl]-8-trifluoromethyl-imidazo[1,2-a]pyridin-6-yl}-pyrrole-1-carboxylic Acid Tert-butyl Ester], the inhibition at 10 µM was 69.3%.

For the origin of these results see US20120121540A1 (priority 2007, published 2012).
